Measured values taken from US5693492A, “DNA encoding glutamate gated chloride channels” (priority 1995, dated 1997).

Molecular target: T1, Dros GluCl (Drosophila melanogaster, UniProt Q94900, I27V/K241R)
T1 construct: Clone pDros GluCl was linearized by digestion with the restriction endonuclease SalI; expressed in transfected cells; host or cells: Xenopus laevis oocytes injected with in vitro transcribed Dros GluCl RNA
Test: cell-based
Details: for Reversibility of activated current (in words): after washing drug from the bath, IVMPO4 observed for up to 10 minutes; for Sensitivity of oocytes injected with Dros GluCl RNA (in words): tested at concentrations of 1 mM or higher
Method: Clone pDros GluCl was linearized by digestion with the restriction endonuclease SalI. In vitro RNA was synthesized from 0.5 μg of this plasmid in a reaction containing 40 mM Tris-HCl, pH 7.5; 6 mM MgCl2; 2 mM Spermidine; 10 mM NaCl; 10 mM DTT; 0.05 mg/ml Bovine Serum Albumin; 2 units/ul RNasin; 800 μM each ATP, CTP, and UTP; 200 μMGTP; 800 μM m7G(5')ppp(5')G; 5 μCi ^32 P-CTp; and 50 units T3 RNA polymerase in a final volume of 50 μl. The reaction was incubated for 3 hours at 37° C. followed by an additional 15 minutes incubation with 20 units RNase free DNase and extraction with phenol, phenol:chloroform, and chloroform. The RNA was precipitated with 1/10 volume 3M sodium acetate and 2.5 volumes 100% ethanol, stored at -20° C. for 16 hours, washed with 70% ethanol and resuspended in water at a concentration of 1 mg/ml for injection into Xenopus laevis oocytes.
Xenopus laevis oocytes were prepared and injected using standard methods previously described and known in the art [Arena, J. P., Liu, K. K., Paress, P. S. & Cully, D. F. Mol. Pharmacol. 40, 368-374 (1991); Arena, J. P., Liu, K. K., Paress, P. S., Schaeffer, J. M. & Cully, D. F. Mol. Brain Res. 15, 339-348 (1992)]. Adult female Xenopus laevis were anesthetized with 0.17% tricaine methanesulfonate and the ovaries were surgically removed and placed in a dish consisting of (mM): NaCl 82.5, KCl 2, MgCl2 1, CaCl2 1.8, HEPES 5 adjusted to pH 7.5 with NaOH (OR-2). Ovarian lobes were broken open, rinsed several times, and gently shaken in OR-2 containing 0.2% collagenase (Sigma, Type 1A) for 2-5 hours. When approximately 50% of the follicular layers were removed, Stage V and VI oocytes were selected and placed in media consisting of (mM): NaCl 86, KCl 2, MgCl2 1, CaCl2 1.8, HEPES 5, Na pyruvate 2.5, theophylline 0.5, gentamicin 0.1 adjusted to pH 7.5 with NaOH (ND-96) for 24-48 hours before injection. Oocytes were injected with 50 nl of Dros GluCl RNA (0.01-1 mg/ml). Control oocytes were injected with 50 nl of water. Oocytes were incubated for 2-10 days in ND-96 before recording. Incubations and collagenase digestion were carried out at 18° C.
Recordings were made at room temperature in standard frog saline consisting of (mM): NaCl 115, KCl 2, MgCl2 1, CaCl2 1.8, HEPES 10, adjusted to pH 7.5 with NaOH. Oocytes were voltage-clamped using a standard two microelectrode amplifier (Dagan 8500 or TEV-200, Minneapolis, Minn.). Pipettes were filled with 3M KCl and had resistances between 0.5-3.0 megaohms. A plexiglass recording chamber (volume 200 μl) was constantly perfused at a rate of 10 ml/min. The recording chamber was connected to ground with a Ag/AgCl electrode. Data were acquired and analyzed using PCLAMP with a TL-1 interface (Axon Instruments, Foster City, Calif.). Membrane current at a holding potential of -80 mV was recorded. The amplitude of drug-sensitive current was determined by subtracting the holding current at -80 mV from the peak current obtained in the presence of drug. Data were filtered at 30 Hz and sampled at 16.6 Hz. Current/voltage relationships (I/V) and reversal potentials (Erev) were determined using a 1-3 sec voltage ramp over the voltage range of -110 to +80 mV. For the ramps, data were filtered at 0.3-3 kHz and sampled at 160 Hz. Current in drug free solution was subtracted from current in the presence of drug to obtain drug-sensitive current/voltage relationships.

T1 sequence (Q94900 23-456 I27V/K241R/S345N): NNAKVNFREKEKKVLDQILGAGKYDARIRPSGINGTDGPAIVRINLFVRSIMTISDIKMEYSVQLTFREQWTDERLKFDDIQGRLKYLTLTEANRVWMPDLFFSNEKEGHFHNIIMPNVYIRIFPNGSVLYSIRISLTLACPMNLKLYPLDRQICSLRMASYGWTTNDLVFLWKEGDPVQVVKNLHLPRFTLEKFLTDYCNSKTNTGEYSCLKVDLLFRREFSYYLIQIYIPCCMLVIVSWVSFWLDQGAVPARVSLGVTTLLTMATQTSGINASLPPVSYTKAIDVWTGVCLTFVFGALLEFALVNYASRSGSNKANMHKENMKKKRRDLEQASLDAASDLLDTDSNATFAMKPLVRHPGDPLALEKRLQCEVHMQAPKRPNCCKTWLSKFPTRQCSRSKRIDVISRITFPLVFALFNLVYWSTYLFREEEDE

C=C(C)C1C(=O)c2c3c(cc4c5c(n1c24)C1(C)C(CCC2C(C)(/C=C/C=C(\C)C(=O)O)C(O)CCC21C)C5)C1=CC(C)(C)OC(C)(C)C1C3O (centres unmarked) [Compound-1]
Time for current to fully return to baseline (after Compound-1, oocytes expressing Dros GluCl): up to 10 minutes | Reversibility of activated current (in words): slowly reversible | Activation of membrane current (in words) (oocytes expressing Dros GluCl): directly activated membrane current

NCCCC(=O)O [GABA]
Sensitivity of oocytes injected with Dros GluCl RNA (in words): insensitive

CC[C@H](C)[C@H]1O[C@]2(CC[C@@H]1C)C[C@@H]1C[C@@H](C/C=C(\C)[C@H](O[C@H]3C[C@H](OC)[C@@H](O[C@H]4C[C@H](OC)[C@@H](OP(=O)(O)O)[C@H](C)O4)[C@H](C)O3)[C@@H](C)/C=C/C=C3\CO[C@@H]4[C@H](O)C(C)=C[C@@H](C(=O)O1)[C@]34O)O2 [IVMPO4]
Current activated, % of maximal current (10 nM IVMPO4, oocytes expressing Dros GluCl): 20-40% | Reversibility of activated current (in words): irreversible | Activation of membrane current (in words) (oocytes expressing Dros GluCl): directly activated current | Concentration giving maximal activation of current (oocytes expressing Dros GluCl): 1 µM

CN[C@H](CC(=O)O)C(=O)O [N-methyl-D-aspartic acid]
Sensitivity of oocytes injected with Dros GluCl RNA (in words): insensitive

N[C@@H](CC(=O)O)C(=O)O [aspartate]
Emax at 1000 µM (read-out: % of maximal activation): 8%

N[C@@H](CCC(=O)O)C(=O)O [glutamate]
EC50: 30 µM

NCC(=O)O [glycine]
Sensitivity of oocytes injected with Dros GluCl RNA (in words): insensitive

NCCc1c[nH]cn1 [histamine]
Sensitivity of oocytes injected with Dros GluCl RNA (in words): insensitive

NC(C(=O)O)c1cc(O)no1 (centres unmarked) [ibotenate]
Activation of membrane current (in words) (oocytes expressing Dros GluCl): reversibly activated | Concentration giving maximal activation of current (oocytes expressing Dros GluCl): 100 µM

C=C(C)[C@H]1CN[C@H](C(=O)O)[C@H]1CC(=O)O [kainate]
Sensitivity of oocytes injected with Dros GluCl RNA (in words): insensitive

picrotoxin
Block of the current elicited with IVMPO4 (500 μM picrotoxin, oocytes expressing Dros GluCl): 13%
